From ChEMBL document CHEMBL5346905, “2,6-diazaspiro[3.4]octan-7-one derivatives as potent sigma-1 receptor antagonists that enhanced the antinociceptive effect of morphine and rescued morphine tolerance” (Eur J Med Chem, 2023) come the findings set out here.

SMILES strings stand for the structures. Active and inactive are the calls of the source. The calls are words filed in the database; no cut-off is given here.

Data set [1] deals with T1, Sigma non-opioid intracellular receptor 1 (Cavia porcellus, UniProt Q60492). As to the kind of experiment: Displacement of [3H]-pentazocine from sigma1 receptor in guinea pig brain membrane at 1 uM by liquid scintillation counting analysis relative to control. In kind it is cell membranes.
T1 sequence (Q60492 whole entry): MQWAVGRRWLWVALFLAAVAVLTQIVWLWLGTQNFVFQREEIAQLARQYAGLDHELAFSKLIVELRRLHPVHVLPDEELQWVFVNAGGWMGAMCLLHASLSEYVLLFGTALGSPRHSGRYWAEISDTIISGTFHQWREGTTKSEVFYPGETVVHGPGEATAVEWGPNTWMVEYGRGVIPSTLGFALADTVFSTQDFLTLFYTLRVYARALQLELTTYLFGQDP
The nature of data set [2]: AUClast in C57BL/6J mouse at 10 mg/kg, ip measured after 24 hrs by LC-MS/MS analysis. In kind it is ADME, organism-based. Also on record: time 24 hrs, dose 10 mg/kg, route ip. Particulars: in vivo.
Data set [3] in a line: Ratio of drug concentration in brain to plasma in C57BL/6J mouse at 10 mg/kg, ip measured after 4 hrs by LC-MS/MS analysis. It is filed as ADME, organism-based. To be noted: read-out: BPR.
Data set [4] deals with Mu-type opioid receptor (Homo sapiens) (UniProt P35372). As to the kind of experiment: Displacement of [3H]-DAMGO from human MOR expressed in CHO cells at 1 uM incubated for 90 mins by beta-scintillation counting analysis. It is filed as cell-based.
Sequence of Mu-type opioid receptor (Homo sapiens) (P35372 whole entry): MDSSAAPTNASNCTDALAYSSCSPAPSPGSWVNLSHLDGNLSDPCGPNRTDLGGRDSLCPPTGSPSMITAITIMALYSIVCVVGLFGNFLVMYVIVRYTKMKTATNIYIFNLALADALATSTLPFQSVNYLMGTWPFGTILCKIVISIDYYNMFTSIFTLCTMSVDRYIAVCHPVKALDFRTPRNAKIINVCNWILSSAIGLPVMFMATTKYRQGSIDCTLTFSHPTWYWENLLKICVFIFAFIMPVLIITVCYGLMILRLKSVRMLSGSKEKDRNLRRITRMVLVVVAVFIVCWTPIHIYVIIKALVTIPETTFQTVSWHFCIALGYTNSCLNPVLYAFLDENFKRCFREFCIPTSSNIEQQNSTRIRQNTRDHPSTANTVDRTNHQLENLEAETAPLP
Data set [5] deals with Mus musculus. As to the kind of experiment: Reversal of morphine tolerance in morphine tolerant C57BL/6J mouse assessed as maximum possible effect of antinociception at 30 mg/kg, ip pre-treated with morphine followed by compound addition on day 4 by hot plate test (reference value: 5.4%). In kind it is functional.
Data set [6] can be described thus: Half life in C57BL/6J mouse at 10 mg/kg, ip measured after 24 hrs by LC-MS/MS analysis. In kind it is ADME, organism-based. To be noted: in vivo.
Data set [7] in a line: Ratio of drug concentration in brain to plasma in C57BL/6J mouse at 10 mg/kg, ip measured after 1 hrs by LC-MS/MS analysis. To be noted: read-out: BPR. It is filed as ADME, organism-based.
Data set [8] has as its system Mus musculus. As to the kind of experiment: Antinociceptive activity in ip dosed C57BL/6J mouse assessed as reduction in morphine-induced nociceptive response pre-administered with compound followed by morphine addition measured after 30 mins by hot plate test. It is filed as functional, organism-based. Particulars: dose 0-60 mg/kg.
For data set [9], the target named is Sigma non-opioid intracellular receptor 1 (Homo sapiens, UniProt Q99720). As to the kind of experiment: Antagonist activity at sigma1 receptor (unknown origin).
Sequence of Sigma non-opioid intracellular receptor 1 (Homo sapiens, UniProt Q99720) (Q99720 whole entry): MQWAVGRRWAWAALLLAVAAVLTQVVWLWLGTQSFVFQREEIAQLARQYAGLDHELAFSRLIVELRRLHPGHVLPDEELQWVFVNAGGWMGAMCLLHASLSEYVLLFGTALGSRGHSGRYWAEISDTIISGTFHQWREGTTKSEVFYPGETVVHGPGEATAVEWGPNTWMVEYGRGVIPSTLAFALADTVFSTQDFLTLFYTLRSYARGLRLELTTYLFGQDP
The nature of data set [10]: Drug concentration in brain of C57BL/6J mouse at 10 mg/kg, ip measured after 1 hrs by LC-MS/MS analysis. Particulars: read-out: Drug uptake. In kind it is ADME, organism-based.
Data set [11] can be described thus: Drug concentration in brain of C57BL/6J mouse at 10 mg/kg, ip measured after 4 hrs by LC-MS/MS analysis. In kind it is ADME, organism-based. To be noted: read-out: Drug uptake.
The subject of data set [12] is Mus musculus. As to the kind of experiment: Antinociceptive activity in C57BL/6J mouse assessed as reduction in morphine-induced nociceptive response by measuring morphine ED50 at 30 mg/kg, ip pre-administered with compound followed by morphine addition measured after 30 mins by hot plate test (reference value: 4.3 mg/kg). In kind it is functional.
Data set [13] is described as follows: Drug concentration in plasma of C57BL/6J mouse at 10 mg/kg, ip measured after 1 hrs by LC-MS/MS analysis. It is filed as ADME, organism-based.
For data set [14], the system named is Mus musculus. As to the kind of experiment: Synergistic antinociceptive activity in C57BL/6J mouse assessed as reduction in morphine-induced nociceptive response at 30 mg/kg, ip pre-administered with compound followed by morphine addition measured after 30 mins in presence of PRE-084 by hot plate test. It is filed as functional, organism-based.
Data set [15] relates to Mus musculus. As to the kind of experiment: Reversal of morphine tolerance in morphine tolerant C57BL/6J mouse assessed as maximum possible effect of antinociception at 30 mg/kg, ip pre-treated with morphine followed by compound addition on day 4 in presence of PRE-084 by hot plate test. It is filed as functional, organism-based.
The target of data set [16] is Sigma intracellular receptor 2 (Homo sapiens, UniProt Q5BJF2). As to the kind of experiment: Antagonist activity at sigma2 receptor (unknown origin).
Sequence of Sigma intracellular receptor 2 (Q5BJF2 whole entry): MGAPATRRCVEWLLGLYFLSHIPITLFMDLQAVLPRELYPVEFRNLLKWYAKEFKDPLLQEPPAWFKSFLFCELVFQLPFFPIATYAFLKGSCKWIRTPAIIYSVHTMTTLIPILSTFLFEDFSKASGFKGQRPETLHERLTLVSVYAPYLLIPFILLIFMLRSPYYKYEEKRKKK
The nature of data set [17]: Observed AUC(0 to infinity) in C57BL/6J mouse at 10 mg/kg, ip measured after 24 hrs by LC-MS/MS analysis. It is filed as ADME, organism-based. Also on record: time 24 hrs, dose 10 mg/kg, route ip. To be noted: in vivo.
Data set [18] concerns Mus musculus. As to the kind of experiment: Antinociceptive activity in C57BL/6J mouse assessed as reduction in nociceptive response at 30 mg/kg, ip measured after 30 mins by hot plate test. In kind it is functional, organism-based.
The subject of data set [19] is Mus musculus. As to the kind of experiment: Synergistic antinociceptive activity in C57BL/6J mouse assessed as reduction in morphine-induced nociceptive response at 30 mg/kg, ip pre-administered with compound followed by morphine addition measured after 30 mins in presence of naloxone by hot plate test. In kind it is functional, organism-based.
Data set [20] deals with T1, Sigma non-opioid intracellular receptor 1. As to the kind of experiment: Displacement of [3H]-pentazocine from sigma1 receptor in guinea pig brain membrane assessed as inhibition constant in presence of phenytoin by liquid scintillation counting analysis. It is filed as cell membranes.
Data set [21] is described as follows: Drug concentration in plasma of C57BL/6J mouse at 10 mg/kg, ip measured after 4 hrs by LC-MS/MS analysis. In kind it is ADME, organism-based.
Data set [22] in a line: Tmax in C57BL/6J mouse at 10 mg/kg, ip measured after 24 hrs by LC-MS/MS analysis. It is filed as ADME, organism-based. Particulars: in vivo.
A short description of data set [23]: Observed MRT(0 to infinity) in C57BL/6J mouse at 10 mg/kg, ip measured after 24 hrs by LC-MS/MS analysis. It is filed as ADME, organism-based. To be noted: in vivo.
Data set [24] is described as follows: Cmax in C57BL/6J mouse at 10 mg/kg, ip measured after 24 hrs by LC-MS/MS analysis. In kind it is ADME, organism-based. Also on record: time 24 hrs, dose 10 mg/kg, route ip. To be noted: in vivo.
Data set [25] deals with Mus musculus. As to the kind of experiment: Synergistic antinociceptive activity in C57BL/6J mouse assessed as reduction in morphine-induced nociceptive response upto 60 mg/kg, ip pre-administered with compound followed by morphine addition measured after 30 mins by hot plate test. It is filed as functional, organism-based.

In [1], `O=C1CC2(CN(CCCc3ccc(F)cc3)C2)CN1c1ccccc1` showed a Ki of 16.8 nM.

In the case of `Cc1ccc(N2CC3(CC2=O)CN(CCCc2ccccc2)C3)cc1`, the Ki in data set [1] is 68.3 nM.

Molecule `Cc1cccc(CCN2CC3(CC(=O)N(c4ccc(F)cc4)C3)C2)c1` displayed an inhibition constant (Ki) in data set [1] of 47.6 nM.

For the molecule `O=C1CC2(CN(CCc3ccc4ccccc4c3)C2)CN1c1ccccc1`, the inhibition constant Ki in data set [1] turned out to be 60.4 nM.

On to `Cc1cccc(N2CC3(CC2=O)CN(CCCc2ccccc2)C3)c1`, for which affinity in [1] was put at a Ki of 49.7 nM.

`O=C1CC2(CN(CCc3cccc(F)c3)C2)CN1c1ccccc1` had an inhibitory constant (Ki) in data set [1] of 393 nM.

For the molecule `Cc1cccc(CCCN2CC3(CC(=O)N(c4ccccc4)C3)C2)c1`, in data set [1], the affinity, expressed as Ki, was 33 nM.

In data set [2], `Cc1ccc(CCCN2CC3(CC(=O)N(c4ccccc4)C3)C2)cc1` returned an area under the curve AUC(0-t) at 24 h of 2240 ng·h/mL. For the same molecule, the Kp at 4 h in [3] is 7.8. Also, the figures for the Activity in data set [4] and in data set [8] were 16.5% and “Dose-Dependent Effect”, respectively. For the same molecule, in data set [5], the MPE came out at 70.5%. Further, the half-life in data set [6] is 1.42 h. For the same molecule, the Kp at 1 h in data set [7] was 7.38. In addition, the half-inhibitory concentration (IC50) in data set [9] was 19.1 nM; in data set [16], 227 nM. Moreover, the concentration at 1 h in data set [10] is 3790 ng/g; in [13], 513 ng/mL. Also, the concentration at 4 h in data set [11] is 609 ng/g; in data set [21], 78 ng/mL. Moreover, the median effective dose (ED50) in data set [12] (0.5 h) turned out to be 2.3 mg/kg. In addition, the result in data set [14], in data set [15], in data set [18] and in [19] was inactive. Besides, the results for the inhibition constant Ki in [1] and in data set [20] were 14.5 nM and 37.2 nM, respectively. The molecule also gave an area under the curve AUC(0-inf) in data set [17] of 2290 ng·h/mL. In addition, the Tmax in data set [22] came to 0.25 h. Moreover, in [23], the MRT inf was 2.08 h. The molecule also gave a maximum concentration (Cmax) in data set [24] of 990 ng/mL.

For the molecule `CC(Cc1ccccc1)N1CC2(CC(=O)N(c3ccc(F)cc3)C2)C1` (stereo not given), the inhibition constant Ki in data set [1] was 181 nM.

In the case of `O=C1CC2(CN(CCCc3ccccc3)C2)CN1c1ccc(F)cc1`, the inhibition constant Ki in [1] came to 34.9 nM.

Turning to `CC(Cc1ccccc1)N1CC2(CC(=O)N(c3ccccc3)C2)C1` (stereo not given), the inhibitory constant (Ki) in data set [1] came out at 40.5 nM.

Turning to `O=C1CC2(CN(CCCc3ccccc3F)C2)CN1c1ccccc1`, affinity in data set [1] was put at a Ki of 44.5 nM.

Take `Cc1cc(OCCN2CCOCC2)nn1-c1ccc2ccccc2c1`: the outcome in data set [5], in [25] and in [12] was inactive. The molecule also showed an inhibition constant (Ki) in [1] of 12.9 nM.

In data set [1], `O=C1CC2(CN(CCC3CCCCC3)C2)CN1c1ccccc1` registered a Ki of 42.7 nM.

The molecule `O=C1CC2(CN(CCc3ccccc3)C2)CN1c1ccccc1` registered a Ki in data set [1] of 175 nM.

Take `O=C1CC2(CN(CCC3CCCCC3)C2)CN1c1ccc(F)cc1`: the Ki in [1] was 38.8 nM.

In data set [1], `O=C1CC2(CN(CCCc3cccc(F)c3)C2)CN1c1ccccc1` gave a Ki of 26.8 nM.

With `O=C1CC2(CN(CCCc3ccccc3)C2)CN1c1ccccc1`, the Ki in data set [1] is 48.7 nM.

The molecule `O=C1CC2(CN(CCCc3ccccc3)C2)CN1Cc1ccccc1` displayed a Ki in [1] of 83.7 nM.
